The subject of assay [1] is P. aeruginosa AV65. It is filed as cell-based, Pseudomonas aeruginosa. As to conditions: P. aeruginosa AV65; FQr AGr ESCr NEMr (MBL/IMP-13). As for the experimental part:
(§1) M33, […], M35 and M36 MICs were determined against strains of several bacterial species, including Gram-negative pathogens and also Staphylococcus aureus (Table 1). MICs in the micromolar range were observed against several Gram-negatives including Pseudomonas aeruginosa, Acinetobacter baumannii and most Enterobacteriaceae, with the exception of Proteus mirabilis, Serratia marcescens and Burkholderia cepacia. Activity of peptides was retained against MDR strains with various resistance mechanisms (such as extended-spectrum beta-lactamases and carbapenemases), including MDR P. aeruginosa strains from CF patients. Antimicrobial profile of M33, […] and potency were overall similar to those of polymyxin B, although M33, M34, M35 and M36 also appeared to have some activity against S. aureus (Table 1).

The subject of assay [2] is P. aeruginosa EF-OBG6-1. It is filed as cell-based, Pseudomonas aeruginosa. As to conditions: P. aeruginosa EF-OBG6-1; CF clinical isolate, FQr AGr ESCr NEMr (MBL/IMP-13). On the procedure: as §1
Assay [3] deals with P. aeruginosa PAO-1. In kind it is cell-based, Pseudomonas aeruginosa. As to conditions: P. aeruginosa PAO-1; reference strain, wild type. On the procedure: as §1
In assay [4] the test system is P. aeruginosa SC-BGr12-02. It is filed as cell-based, Pseudomonas aeruginosa. The following applies: P. aeruginosa SC-BGr12-02; CF clinical isolate, FQr AGr ESCr NEMr. On the procedure: as §1
For assay [5], the system named is P. aeruginosa SC-CNm03-07. It is filed as cell-based, Pseudomonas aeruginosa. As to conditions: P. aeruginosa SC-CNm03-07; CF clinical isolate, mucoid, FQr AGr ESCr NEMr. As for the experimental part:
as §1

In assay [6] the test system is P. aeruginosa SC-DMr05-04. In kind it is cell-based, Pseudomonas aeruginosa. As to conditions: P. aeruginosa SC-DMr05-04; CF clinical isolate, FQr AGr ESCr NEMr. On the procedure: as §1
Assay [7] has as its system P. aeruginosa SC-GMm03-05. In kind it is cell-based, Pseudomonas aeruginosa. As to conditions: P. aeruginosa SC-GMm03-05; CF clinical isolate, mucoid, FQr AGr ESCr NEMr. As for the experimental part:
as §1

Assay [8] concerns P. aeruginosa SC-MDm03-02. It is filed as cell-based, Pseudomonas aeruginosa. As to conditions: P. aeruginosa SC-MDm03-02; CF clinical isolate, mucoid, FQr AGr ESCr NEMr. As for the experimental part: as §1
Assay [9] concerns P. aeruginosa SC-MDr03-06. In kind it is cell-based, Pseudomonas aeruginosa. As to conditions: P. aeruginosa SC-MDr03-06; CF clinical isolate, FQr AGr ESCr NEMr. As for the experimental part:
as §1

For assay [10], the system named is P. aeruginosa SC-VMr04-05. In kind it is cell-based, Pseudomonas aeruginosa. As to conditions: P. aeruginosa SC-VMr04-05; CF clinical isolate, FQr AGr ESCr NEMr. As for the experimental part:
as §1

For assay [11], the system named is P. aeruginosa VR-143/97. It is filed as cell-based, Pseudomonas aeruginosa. As to conditions: P. aeruginosa VR-143/97; FQr AGr ESCr NEMr (MBL/VIM-1). On the procedure: as §1
Assay [12] deals with Acinetobacter baumannii RUH 134. It is filed as cell-based. The following applies: Acinetobacter baumannii RUH 134; reference strain, European clone II. As for the experimental part: as §1
For assay [13], the system named is Burkholderia cepacia ORB-99. In kind it is cell-based. As to conditions: Burkholderia cepacia ORB-99; CF clinical isolate, wild type. As for the experimental part: as §1
Assay [14] deals with Enterobacer aerogenes W03BG0067. In kind it is cell-based. As to conditions: Enterobacer aerogenes W03BG0067; AGr ESCr (ESBL/SHV-5). On the procedure:
as §1

For assay [15], the system named is Enterobacter cloacae W03AN0041. It is filed as cell-based. As to conditions: Enterobacter cloacae W03AN0041; ESCr (ESBL/SHV-12). As for the experimental part:
as §1

Assay [16] deals with Escherichia coli ATCC 25922. It is filed as cell-based. The following applies: Escherichia coli ATCC 25922; reference strain, wild type. On the procedure:
as §1

In assay [17] the test system is Klebsiella pneumoniae ATCC 13833. It is filed as cell-based. The following applies: Klebsiella pneumoniae ATCC 13833; reference strain, wild type. On the procedure:
as §1

Assay [18] relates to Proteus mirabilis W03VA1017. In kind it is cell-based. As to conditions: Proteus mirabilis W03VA1017; FQr ESCr (AmpC/CMY-16). On the procedure: as §1
The test system of assay [19] is Pseudomonas aeruginosa ATCC 27853. In kind it is cell-based. The following applies: Pseudomonas aeruginosa ATCC 27853; reference strain, wild type. As for the experimental part:
as §1

The subject of assay [20] is Serratia marcescens W03BG0003. In kind it is cell-based. The following applies: Serratia marcescens W03BG0003; FQr AGr ESCr (ESBL/SHV-12). On the procedure:
as §1

For assay [21], the system named is Staphylococcus aureus ATCC 29213. It is filed as cell-based. As to conditions: Staphylococcus aureus ATCC 29213; reference strain, PENr. As for the experimental part:
as §1

Assay [22] relates to K pneumoniae 7086042. In kind it is cell-based, Klebsiella pneumoniae. As to conditions: K pneumoniae 7086042; FQr AGr ESCr NEMr (MBL/VIM-1). On the procedure: as §1
Assay [23] deals with K pneumoniae C8-27. In kind it is cell-based, Klebsiella pneumoniae. As to conditions: K pneumoniae C8-27; FQr AGr ESCr ETPr (ESBL/CTX-M-15). On the procedure: as §1
For assay [24], the system named is K pneumoniae FIPP-1. In kind it is cell-based, Klebsiella pneumoniae. As to conditions: K pneumoniae FIPP-1; FQr AGr ESCr NEMr (MBL/KPC-3). On the procedure: as §1
The test system of assay [25] is E. coli W03BG0025. It is filed as cell-based, Escherichia coli. As to conditions: E. coli W03BG0025; FQr AGr ESCr (ESBL/CTX-M-15). As for the experimental part:
as §1

Assay [26] has as its system A. baumannii MR157. It is filed as cell-based, Acinetobacter baumannii. The following applies: A. baumannii MR157; FQr AGr ESCr NEMr (OXA/OXA-58). On the procedure:
as §1

Assay [27] deals with A. baumannii RUH 875. In kind it is cell-based, Acinetobacter baumannii. The following applies: A. baumannii RUH 875; reference strain, European clone I. On the procedure:
as §1

Assay [28] relates to S. aureus 3851. In kind it is cell-based, Staphylococcus aureus. The following applies: S. aureus 3851; MR VANi. As for the experimental part: as §1
Assay [29] deals with E. coli TG1. The assay can be described thus: Antibacterial activity against E. coli TG1 cells (CFU count after 75 min incubation, FIG. 1A). The following applies: 75 minutes at 37° C., CFU counted. It is filed as cell-based. The source says: FIG. 1. A, Antibacterial activity against E. coli TG1 cells. Comparison of the following tetra-branched peptides: M6 batch 1 synthesis (triangles), M6 batch 2 synthesis (squares), M6 batch 3 synthesis (white circles), which contain a mixture of Gln and pyroGlu (in unknown percentages) as first amino-acid, […] (asterisks), where the first amino-acid is 100% pyroGlu, and M33 (black circles), in which the first Gln was deleted. […] SD derived by means of three different experiments. Many different syntheses of M33 (and also of M34, M35 and M36, here not shown) gave perfectly overlapping results without any wavering outcome. B, Mass spectrometry analysis of tetra-branched peptide M6 crude mixture. Calculated molecular mass of M6 was 5195 Da. Two main peaks are present, one at 5197 Da corresponding to unmodified M6 and one at 5179 Da that corresponds to the secondary product with one pyroGlu in first position in the place of one of the four Gln. C, Mass spectrometry analysis of tetrabranched peptide M33 after 24 hours of incubation in serum. The peptide appears as a single peak at the expected molecular mass (4683 Da).
A single colony of E. coli TG1 strain was cultured in 2×TY medium to 0.2 OD^600. […] The following day colonies (CFU/ml) grown on plates were counted.

Where no end group is shown, it is not given here. Bounds are passed on as bounds.

For orientation: MIC means the least concentration at which growth counts as inhibited. Low readings indicate inhibition by little substance, high ones a need for much substance. Turning to Polymyxin B [reference compound], the MIC came out at 1.5 µM in assay [1]; 0.7 µM in [2]; 1.5 µM in assay [3]; 1.5 µM in [4]; 0.7 µM in assay [5]; 1.5 µM in [6]. For the same substance, the MIC in assay [7], in assay [8], in assay [9], in assay [10], in assay [11] and in assay [12] was 1.5 µM throughout. The MIC in assay [13] was above 96 µM; in assay [14] it was 0.7 µM; in assay [15], 0.7 µM; in assay [16], 0.7 µM; in assay [17] it was 0.7 µM; in [18] it was above 96 µM. Besides, the MIC in assay [19] was 1.5 µM; in [20] it was above 96 µM; in assay [21], 96 µM; in [22] it was 1.5 µM; in [23], 0.7 µM; in assay [24], 1.5 µM. Moreover, the MIC is 0.7 µM in assay [25], 1.5 µM in assay [26], 1.5 µM in assay [27] and 96 µM in assay [28].
As for “QKKIRVRLSA (also: tetra-branched MAP) [M6, previously reported tetra-branched MAP peptide with Gln as first amino-terminal residue, reference compound]”, the “Antibacterial activity against E. coli TG1 cells (comparison of tetra-branched peptides, FIG. 1A)” value in assay [29] was “intermediate antimicrobial activities”.

The values are drawn from patent US8440794B2, “Peptide sequences, their branched form and use thereof for antimicrobial applications” (Universita' Degli Studi di Siena, priority 2008, dated 2013).
